Test results from patent US20220257774A1, “AROMATIC AMINE AR AHD BET TARGETING PROTEIN DEGRADATION CHIMERA COMPOUND AND USE” (HINOVA PHARMACEUTICALS INC., priority 2019, published 2022).
pIC50: −log10 of the molar value. Read-outs that look alike come from different tables or passages of the source.

What was measured:
Type in all cases: cell-based
BRD4 = target: T1, BRD4 (Homo sapiens, UniProt O60885); test: Down-regulation/degradation of BRD4 determined by Western blot in CWR22RV1 cells; settings: concentration 100 nM, 24 h
T1 construct: CWR22RV1 cells were subcultured in cell culture media; endogenous in cells; host or cells: CWR22RV1 cells
Description: (§1) The Down-Regulation on the Protein Expression of Androgen Receptors AR and Brd4 Determined by Western Blot CWR22RV1 cells (National Collection of Authenticated Cell Cultures. TCHu100) FBS (Gibco, Cat. No. 10099-141) 0.01M PBS (Biosharp. Cat. No. 162262) RIPM1640 (Hyclone, Cat. No. 308090.01) Penicillin-Streptomycin (Hyclone. Cat. No. SV30010) DMSO (Sigma. Cat. No. D5879) Centrifuge tube, 15 ml (Excell Bio. Cat. No. CS015-0001) Cell culture plate (Excell Bio. Cat. No. CS016-0128) 6-well cell culture cluster (Corning, Cat. No. 3516) RIPA lysate buffer (Beyotime, Cat. No. P0013B) Protein loading buffer (Beyotime, Cat. No. P0015L) CA protein assay kit (Beyotime, Cat. No. P0012) SDS-PAGE gel preparation kit (Chengdu Baihe Technology Co., Ltd. Cat. No. PG112) Anti-β-tubulin mouse mAb (Zen Bioscience, Cat. No. 200608) Androgen Receptor ([…]) XP Rabbit mAb (CST. Cat. No. 5153) Anti-cMyc(D3N8F) Rabbit mAb (CST. Cat. No. 13987) Anti-BRD4(E2A7X) rabbit mAb (CST, Cat. No. 13440) Peroxidase Affinipure(HRP) Goat Anti-Mouse IgG (Zen Bioscience, Cat. No. 511103) Peroxidase Affinipure(HRP) Goat Anti-Rabbit IgG (Zen Bioscience, Cat. No. 511203) TBST (Biosharp. Cat. No. B[…]) ECL chemiluminescence kit (Beyotime, Cat. No. […]1 cells were subcultured in cell culture media, and then the cells in good growth condition were seeded in a 6-well plate at 2 ml/well (1×10^6 cells/well), and cultured overnight in a 37° C., 5% CO2 cell incubator. 2) The drug was prepared as a 10 mM stock solution with dimethyl sulfoxide (DMSO). […] The plate was gently tapped to thoroughly mix. In addition, the experiment included negative control wells (containing equal amount of DMSO) and positive control wells. 3) After culturing 24 hi, the cells were lysed with RIPA cell lysate, and the protein was extracted. […] The first antibody (Androgen Receptor ([…]) XP Rabbit mAb. Anti-cMyc(D3N8F) Rabbit mAb, Anti-BRD4(E2A7X) rabbit mAb and Anti-β-Tubulin Mouse mAb) was added and incubated overnight at 4° C. The membrane was rinsed with TBST solution three times, 10 min for each time. The secondary antibody (horseradish peroxidase labeled goat anti mouse IgG) was added and incubated at room temperature for 2 h, and then the membrane was washed with TBST solution three times, 10 m for each time. Finally. ECL chemiluminescence solution was added, and then photos were taken with automatic chemiluminescence instrument to collect pictures for analysis.

Androgen receptor (AR) = test: Down-regulation/degradation of AR determined by Western blot in CWR22RV1 cells; settings: concentration 100 nM, 24 h
Description: as §1

LNCaP/AR cells = test: Inhibition of the proliferation of LNCap/AR cells (CCK-8); settings: read-out: LNCap/AR IC50
Method in brief: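 Proliferation was read by CCK-8 (OD 450 nm, 1 h) after six days of compound exposure. Cells were seeded at 1000 per well overnight, then dosed in duplicate over nine 3-fold steps with a top final concentration of 10 μM in 0.1% DMSO; IC50 was fitted from inhibition curves.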

22RV1 cells = test: Inhibition of the proliferation of drug-resistant prostate cancer cell 22RV1 (CCK-8); settings: 22RV1 cells (enzalutamide-resistant), same method
Method in brief: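 22RV1 cells, 1000/well in RPMI1640 with 10% FBS, treated in duplicate with 9-point 3-fold dilutions from 10 μM (0.1% DMSO final). After 6 days at 37 °C, CCK-8 added for 1 h and OD450 read. IC50 from dose-response inhibition fit.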

[1] = LNCaP/AR cells, 6 days culture, CCK-8
[2] = 144 h, LNCaP/AR cells, 6 days culture, CCK-8

Structure (SMILES) | pIC50 (LNCaP/AR cells; [1]) | pIC50 (22RV1 cells) | pIC50 (LNCaP/AR cells; [2]) | pIC50 (22RV1 cells; Homo sapiens) | BRD4 (% degradation) (BRD4) | AR (% degradation) (Androgen receptor (AR)) | pIC50 (LNCaP/AR cells; LNCaP/AR, 144 h)
Cc1ccc(-c2c(C)noc2C)cc1N(c1ccc(C2(C#N)CC2)cc1)C1CN([C@H]2C[C@@H](Nc3cc4c(cc3F)CN([C@H]3CCC(=O)NC3=O)C4=O)C2)C1 [Compound 68, 1-(4-((5-(3,5-dimethylisoxazol-4-yl)-2-methylphenyl)(1-((1s,3s)-3-((2-(2,6-dioxopiperidin-3-yl)-6-fluoro-3-oxoisoindolin-5-yl)amino)cyclobutyl)azetidin-3-yl)amino)phenyl)cyclopropane-1-nitrile] | > 7.00 | > 7.00 |  |  | A (>80% of the target protein was degraded) | D (<20% of the target protein was degraded) | 
Cc1ccc(-c2c(C)noc2C)cc1N(CCOC1(C)CN(c2cc3c(cc2F)C(=O)N(C2CCC(=O)NC2=O)C3=O)C1)c1ccc(C2(C#N)CC2)cc1 (centres unmarked) [Compound 111, 1-(4-((5-(3,5-Dimethylisoxazol-4-yl)-2-methylphenyl)(2-((1-(2-(2,6-dioxopiperidin-3-yl)-6-fluoro-1,3-dioxoisoindolin-5-yl)-3-methylazetidin-3-yl)oxy)ethyl)amino)phenyl)cyclopropanecarbonitrile] |  |  | < 5.70 | 6.30 to 7.00 | D (<20% of the target protein was degraded) | D (<20% of the target protein was degraded) | 
Cc1ccc(-c2c(C)noc2C)cc1N(c1ccc(C2(C#N)CC2)cc1)C1CN([C@H]2C[C@H](Nc3cc4c(cc3F)CN([C@@H]3CCC(=O)NC3=O)C4=O)C2)C1 [Compound 70] | 5.70 to 6.30 | > 7.00 |  |  | C (49%-20% of the target protein was degraded) | C (49%-20% of the target protein was degraded) | 
Cc1ccc(-c2c(C)noc2C)cc1N(CCCCNc1ccc2c(c1)C(=O)N(C1CCC(=O)NC1=O)C2=O)c1ccc(C#N)c(Cl)c1 (centres unmarked) [Compound 165, 2-Chloro-4-((5-(3,5-dimethylisoxazol-4-yl)-2-methylphenyl)(4-((2-(2,6-dioxopiperidin-3)-1,3-dioxyisoindolin-5-yl)amino)butyl)amino)benzonitrile] |  |  |  | < 5.70 | A (>80% of the target protein was degraded) | C (49%-20% of the target protein was degraded) | 5.70 to 6.30
Cc1ccc(-c2c(C)noc2C)cc1N(C[C@H]1CC[C@H](CNc2cc3c(cc2F)C(=O)N(C2CCC(=O)NC2=O)C3)CC1)c1ccc(C#N)c(Cl)c1 (some centres unmarked) [Compound 135] | > 7.00 | > 7.00 |  |  | A (>80% of the target protein was degraded) | C (49%-20% of the target protein was degraded) | 
Cc1ccc(-c2c(C)noc2C)cc1N(CCCOC1(C)CN(c2ccc3c(c2)C(=O)N(C2CCC(=O)NC2=O)C3=O)C1)c1ccc(C2(C#N)CC2)cc1 (centres unmarked) [Compound 140] |  |  | 5.70 to 6.30 | 6.30 to 7.00 | C (49%-20% of the target protein was degraded) | D (<20% of the target protein was degraded) | 

The next lines start with results.

pIC50 (LNCaP/AR cells; [1]) | pIC50 (22RV1 cells) | pIC50 (LNCaP/AR cells; [2]) | pIC50 (22RV1 cells; Homo sapiens) | Structure (SMILES) | BRD4 (% degradation) (BRD4) | AR (% degradation) (Androgen receptor (AR)) | pIC50 (LNCaP/AR cells; LNCaP/AR, 144 h)
 |  | 5.70 to 6.30 | > 7.00 | Cc1ccc(-c2c(C)noc2C)cc1N(CC1CC(Nc2cc3c(cc2F)C(=O)N(C2CCC(=O)NC2=O)C3)C1)c1ccc(C2(C#N)CC2)cc1 (centres unmarked) [Compound 39] | C (49%-20% of the target protein was degraded) | C (49%-20% of the target protein was degraded) | 
 |  | > 7.00 | > 7.00 | Cc1ccc(-c2c(C)noc2C)cc1N(C[C@H]1CC[C@H](CNc2cc3c(cc2F)CN(C2CCC(=O)NC2=O)C3=O)CC1)c1ccc(C2(C#N)CC2)cc1 (some centres unmarked) [Compound 168] | A (>80% of the target protein was degraded) | C (49%-20% of the target protein was degraded) | 
 |  | 6.30 to 7.00 | > 7.00 | Cc1ccc(-c2c(C)noc2C)cc1N(CCC1CN(c2cc3c(cc2F)C(=O)N(C2CCC(=O)NC2=O)C3=O)C1)c1ccc(C2(C#N)CC2)cc1 (centres unmarked) [Compound 129, 1-(4-((5-(3,5-Dimethylisoxazol-4-yl)-2-methylphenyl)(2-(1-(2-(2,6-dioxopiperidin-3-yl)-6-fluoro-1,3-dioxoisoindolin-5-yl)azetidin-3-yl)ethyl)amino)phenyl)cyclopropane-1-carbonitrile] | B (79%-50% of the target protein was degraded) | C (49%-20% of the target protein was degraded) | 
 |  | > 7.00 | > 7.00 | Cc1ccc(-c2c(C)noc2C)cc1N(CC(C)OC1CN(c2cc3c(cc2F)C(=O)N(C2CCC(=O)NC2=O)C3)C1)c1ccc(C2(C#N)CC2)cc1 (centres unmarked) [Compound 178, 1-(4-((5-(3,5-dimethylisoxazol-4-yl)-2-methylphenyl)(2-((1-(2-(2,6-dioxopiperidin-3-yl)-6-fluoro-1-oxoisoindolin-5-yl)azetidin-3-yl)oxy)propyl)amino)phenyl)cyclopropane-1-nitrile] | A (>80% of the target protein was degraded) | B (79%-50% of the target protein was degraded) | 
 |  | > 7.00 | > 7.00 | Cc1ccc(-c2c(C)noc2C)cc1N(CC(C)OC1CN(c2ccc3c(c2)CN(C2CCC(=O)NC2=O)C3=O)C1)c1ccc(C2(C#N)CC2)cc1 (centres unmarked) [Compound 180, 1-(4-((5-(3,5-dimethylisoxazol-4-yl)-2-methylphenyl)(2-((1-(2-(2,6-dioxopiperidin-3-yl)-1-oxoisoindolin-5-yl)azacyclobutane-3-yl)oxy)propyl)amino)phenyl)cyclopropane-1-nitrile] | A (>80% of the target protein was degraded) | D (<20% of the target protein was degraded) | 
 |  | 5.70 to 6.30 | > 7.00 | Cc1ccc(-c2c(C)noc2C)cc1N(CC1CCN(CCNc2ccc3c(c2)C(=O)N(C2CCC(=O)NC2=O)C3=O)CC1)c1ccc(C2(C#N)CC2)cc1 (centres unmarked) [Compound 117] | B (79%-50% of the target protein was degraded) | D (<20% of the target protein was degraded) | 
 |  | 5.70 to 6.30 | > 7.00 | Cc1ccc(-c2c(C)noc2C)cc1N(CC(C)OC1CN(c2ccc3c(c2)C(=O)N(C2CCC(=O)NC2=O)C3=O)C1)c1ccc(C2(C#N)CC2)cc1 (centres unmarked) [Compound 174, 1-(4-((5-(3,5-Dimethylisoxazol-4-yl)-2-methylphenyl)(2-((1-(2-(2,6-dioxopiperidin-3-yl)-1,3-dioxoisoindolin-5-yl)azacyclobutane-3-yl)oxy)propyl)amino)phenyl)cyclopropane-1-nitrile] | D (<20% of the target protein was degraded) | D (<20% of the target protein was degraded) | 
 |  | > 7.00 | > 7.00 | Cc1ccc(-c2c(C)noc2C)cc1N(CC1CN(C2CN(c3cc4c(cc3F)C(=O)N(C3CCC(=O)NC3=O)C4)C2)C1)c1ccc(C2(C#N)CC2)cc1 (centres unmarked) [Compound 157] | A (>80% of the target protein was degraded) | B (79%-50% of the target protein was degraded) | 
